Measurements taken from patent publication US8883963B2 (Cadila Healthcare Limited, priority 2007, dated 2014).

Tests used:
human glucagon receptor = target: T1, human glucagon receptor (Homo sapiens, UniProt P47871); assay: In vitro human glucagon antagonist activity (inhibition of cAMP production) in CHO/human glucagon R cells; format: cell-based; details: with saturated concentration of glucagon peptide
T1 construct: The full-length cDNA was cloned in pcDNA3.1 (Invitrogen); expressed in transfected cells

[1] = Stability in human plasma; format: in vitro ADME; details: 2 μM peptidomimetic, pooled human plasma, 37° C.; for half-life at 2 μM: pH 7.8, read-out: half-life (t1/2) when incubated with human plasma
Description: (§1) Reactions were terminated by the addition of TFA/H2O (15 mL, 10% (v/v)). […] The column was equilibrated with TFA/H20, at a flow rate of 1 mL/min.

[2] = Stability in liver microsomes; format: in vitro ADME; details: 2 μM peptidomimetic, human liver microsomes, 37° C.; for half-life at 2 μM: pH 7.8, read-out: half-life (t1/2) when incubated with liver microsomes
Description: as §1

Human GLP-1 receptor = target: T2, Human GLP-1 receptor (Homo sapiens, UniProt P43220); assay: In vitro Human GLP-1 R agonist activity (cyclic AMP determination) in CHO/human GLP1R cells; format: cell-based
T2 construct: The full-length cDNA was cloned in pcDNA3.1(+); expressed in transfected cells

[3] = test system: RIN5F (Rat Insulinoma) cells; assay: In vitro glucose-dependent insulin secretion (RIN5F cell assay screening protocol); format: cell-based; details: 16.7 mM glucose load
[4] = Stability in simulated gastric fluid; format: in vitro ADME; details: 2 μM peptidomimetic, simulated gastric fluid pH 1.5, 37° C.; for half-life at 2 μM: read-out: half-life (t1/2) when incubated with simulated gastric fluid
Description: as §1

DPP IV = DPP IV (Homo sapiens, UniProt P27487); assay: Stability against DPP IV enzyme; format: in vitro ADME; details: 37° C.; for % degradation of peptidomimetics in 24 h when incubated with DPP-IV enzyme: 2 μM peptidomimetic; for half-life at 2 μM: DPP IV enzyme, pH 7.8, 2 μM peptidomimetic, read-out: half-life (t1/2) when incubated with DPP-IV enzyme
Description: as §1

[5] = Stability in simulated intestinal fluid; format: in vitro ADME; details: 2 μM peptidomimetic, simulated intestinal fluid pH 7.5, 37° C.; for half-life at 2 μM: read-out: half-life (t1/2) when incubated with simulated intestinal fluid
Description: as §1

T2 sequence (P43220 24-463): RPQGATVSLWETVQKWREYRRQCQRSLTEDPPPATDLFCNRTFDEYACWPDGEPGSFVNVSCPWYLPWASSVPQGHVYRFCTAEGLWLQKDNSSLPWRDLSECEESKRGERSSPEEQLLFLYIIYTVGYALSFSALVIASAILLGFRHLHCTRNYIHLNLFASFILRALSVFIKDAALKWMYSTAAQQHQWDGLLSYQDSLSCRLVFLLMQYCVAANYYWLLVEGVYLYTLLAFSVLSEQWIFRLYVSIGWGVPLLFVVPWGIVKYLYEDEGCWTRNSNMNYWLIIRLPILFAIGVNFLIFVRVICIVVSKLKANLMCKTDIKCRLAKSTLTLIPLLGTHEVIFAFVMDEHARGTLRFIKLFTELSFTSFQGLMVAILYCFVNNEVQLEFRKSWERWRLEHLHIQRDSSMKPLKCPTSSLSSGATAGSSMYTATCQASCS
T1 sequence (P47871 26-477): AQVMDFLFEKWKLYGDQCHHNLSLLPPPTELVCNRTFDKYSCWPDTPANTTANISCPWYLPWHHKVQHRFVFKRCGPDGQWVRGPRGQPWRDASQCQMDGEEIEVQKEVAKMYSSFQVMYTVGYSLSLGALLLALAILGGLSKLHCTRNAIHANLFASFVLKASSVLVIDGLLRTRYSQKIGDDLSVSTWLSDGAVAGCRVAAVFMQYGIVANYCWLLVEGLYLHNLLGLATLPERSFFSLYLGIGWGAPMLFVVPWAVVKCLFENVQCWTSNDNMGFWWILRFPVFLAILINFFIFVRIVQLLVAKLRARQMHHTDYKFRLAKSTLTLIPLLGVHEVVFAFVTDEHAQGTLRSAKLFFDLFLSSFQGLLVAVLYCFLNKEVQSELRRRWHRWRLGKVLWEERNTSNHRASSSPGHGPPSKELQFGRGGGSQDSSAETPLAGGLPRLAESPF
Sequence of DPP IV (P27487 whole entry, species assumed): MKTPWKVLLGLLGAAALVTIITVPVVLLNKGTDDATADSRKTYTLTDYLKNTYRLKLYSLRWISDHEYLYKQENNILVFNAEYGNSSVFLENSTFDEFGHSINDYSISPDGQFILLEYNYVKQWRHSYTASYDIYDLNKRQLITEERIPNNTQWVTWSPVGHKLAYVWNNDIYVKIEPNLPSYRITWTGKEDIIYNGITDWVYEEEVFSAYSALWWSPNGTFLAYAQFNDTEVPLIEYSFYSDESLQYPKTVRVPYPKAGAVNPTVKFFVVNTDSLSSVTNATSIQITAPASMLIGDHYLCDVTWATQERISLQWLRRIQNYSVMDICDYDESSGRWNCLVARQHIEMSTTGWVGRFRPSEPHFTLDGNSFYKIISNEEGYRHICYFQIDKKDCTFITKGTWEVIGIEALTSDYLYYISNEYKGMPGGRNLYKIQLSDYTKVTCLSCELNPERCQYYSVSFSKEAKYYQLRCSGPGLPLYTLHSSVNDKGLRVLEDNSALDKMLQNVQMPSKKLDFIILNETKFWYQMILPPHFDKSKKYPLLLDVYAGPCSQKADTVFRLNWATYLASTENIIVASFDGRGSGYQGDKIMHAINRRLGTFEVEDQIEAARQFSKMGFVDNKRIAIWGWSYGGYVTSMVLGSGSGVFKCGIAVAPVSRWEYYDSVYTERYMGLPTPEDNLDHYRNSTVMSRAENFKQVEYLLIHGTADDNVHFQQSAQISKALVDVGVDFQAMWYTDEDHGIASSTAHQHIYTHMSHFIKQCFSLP

| SMILES | Human Glucagon receptor antagonistic activity shown as inhibition of cAMP production of Glucagon peptide (human glucagon receptor; 1 nM test compound) [pmol/ml/μg prt] | Human Glucagon receptor antagonistic activity shown as inhibition of cAMP production of Glucagon peptide (human glucagon receptor; 10 nM test compound) [pmol/ml/μg prt] | Human Glucagon receptor antagonistic activity shown as inhibition of cAMP production of Glucagon peptide (human glucagon receptor; 100 nM test compound) [pmol/ml/μg prt] | Human Glucagon receptor antagonistic activity shown as inhibition of cAMP production of Glucagon peptide (human glucagon receptor; 1 μM test compound) [pmol/ml/μg prt] | Human Glucagon receptor antagonistic activity shown as inhibition of cAMP production of Glucagon peptide (human glucagon receptor; 10 μM test compound) [pmol/ml/μg prt] | % degradation of peptidomimetics in 24 h when incubated with human plasma [1] [%] | half-life at 2 μM [1] [h] | % degradation of peptidomimetics in 24 h when incubated with liver microsomes [2] [%] | half-life at 2 μM [2] [h] | Human GLP-1 R activity (cAMP release), % activity with respect to control (Human GLP-1 receptor; 1 nM test compound) [%] | Human GLP-1 R activity (cAMP release), % activity with respect to control (Human GLP-1 receptor; 10 nM test compound) [%] | Human GLP-1 R activity (cAMP release), % activity with respect to control (Human GLP-1 receptor; 100 nM test compound) [%] | Human GLP-1 R activity (cAMP release), % activity with respect to control (Human GLP-1 receptor; 1 μM test compound) [%] | Human GLP-1 R activity (cAMP release), % activity with respect to control (Human GLP-1 receptor; 10 μM test compound) [%] | Insulin secretion ([3]; 0.1 nM test compd.) [pg/µg/h] | Insulin secretion ([3]; 1 nM test compd.) [pg/µg/h] | Insulin secretion ([3]; 10 nM test compd.) [pg/µg/h] | % degradation of peptidomimetics in 24 h when incubated with simulated gastric fluid [4] [%] | % degradation of peptidomimetics in 24 h when incubated with DPP-IV enzyme (DPP IV) [%] | % degradation of peptidomimetics in 24 h when incubated with simulated intestinal fluid [5] [%] | also measured |
| --- | --- | --- | --- | --- | --- | --- | --- | --- | --- | --- | --- | --- | --- | --- | --- | --- | --- | --- | --- | --- | --- |
| CCc1cc(OC)ccc1-c1ccc(CC(C(=O)N(C)C(CCCc2ccccc2)C(N)=O)N(C)C(=O)[C@H](CC(=O)O)N(C)C(=O)[C@H](CO)NC(=O)[C@@H](NC(=O)C(C)(Cc2ccccc2F)NC(=O)[C@@H](NC(=O)CNC(=O)C(CCC#N)NC(=O)C(C)(C)NC(=O)[C@@H](N)Cc2c[nH]cn2)[C@H](C)O)[C@H](C)O)cc1 (single isomer, unassigned) [compound 154] | 9 ± 0.11 | 6 ± 0.12 | 5 ± 0.14 | 3 ± 0.22 | 0 | 75 | 8 | 83 | 1 | 60 ± 0.12 | 92 ± 0.15 | 98 ± 0.18 | 99 ± 0.03 | 99 ± 0.09 | 16.1 ± 0.22 | 22.1 ± 0.26 | 36.0 ± 0.36 | 12 | 74 | 46 | half-life (t1/2) when incubated with simulated gastric fluid [4]: (8) h; half-life at 2 μM (DPP IV): 9 h; half-life (t1/2) when incubated with simulated intestinal fluid [5]: (6) h |
| CCc1cc(OC)ccc1-c1ccc(CC(NC(=O)[C@H](CC(=O)O)NC(=O)[C@H](CO)NC(=O)[C@@H](NC(=O)C(C)(Cc2ccccc2F)NC(=O)[C@@H](NC(=O)CNC(=O)C(CCC#N)NC(=O)C(C)(C)NC(=O)[C@@H](N)Cc2c[nH]cn2)[C@@H](C)O)[C@H](C)O)C(=O)NC(CCCc2ccccc2F)C(N)=O)cc1 (single isomer, unassigned) [compound 120] | 0 | 0 | 0 | 0 | 0 | 00 | > 24 | 80 | 2 | 99 ± 0.12 | 99 ± 0.15 | 99 ± 0.18 | 99 ± 0.03 | 99 ± 0.09 | 16.3 ± 0.15 | 22.4 ± 0.21 | 36.2 ± 0.11 | 41 | 00 | 00 | half-life at 2 μM [4]: 4 h; half-life at 2 μM (DPP IV): > 24 h; half-life at 2 μM [5]: > 24 h |
| CCc1cc(OC)ccc1-c1ccc(CC(NC(=O)[C@H](CC(=O)O)NC(=O)[C@H](CO)NC(=O)[C@@H](NC(=O)C(C)(Cc2ccccc2F)NC(=O)[C@@H](NC(=O)CNC(=O)C(CCC#N)NC(=O)C(C)(C)NC(=O)[C@@H](N)Cc2c[nH]cn2)[C@H](C)O)[C@@H](C)O)C(=O)NC(CCCc2ccccc2F)C(N)=O)cc1 (single isomer, unassigned) [compound 112] | 6 ± 0.01 | 5 ± 0.02 | 2 ± 0.13 | 0 | 0 | 00 | > 24 | 82 | 2 | 39 ± 0.10 | 81 ± 0.08 | 89 ± 0.09 | 96 ± 0.11 | 99 ± 0.16 | 15.3 ± 0.19 | 21.2 ± 0.11 | 35.5 ± 0.19 | 49 | 00 | 00 | half-life at 2 μM [4]: 4 h; half-life at 2 μM (DPP IV): > 24 h; half-life at 2 μM [5]: > 24 h |
| CCc1cc(OC)ccc1-c1ccc(CC(NC(=O)[C@H](CC(=O)O)NC(=O)[C@H](CO)NC(=O)[C@@H](NC(=O)C(C)(Cc2ccccc2F)NC(=O)[C@@H](NC(=O)CNC(=O)C(CCC#N)NC(=O)C(C)(C)NC(=O)[C@@H](N)Cc2c[nH]cn2)[C@H](C)O)[C@H](C)O)C(=O)NC(CCCc2ccccc2)C(N)=O)cc1 (single isomer, unassigned) [compound 114] | 4 ± 0.02 | 2 ± 0.15 | 0 | 0 | 0 | 00 | > 24 | 81 | 2 | 82 ± 0.22 | 87 ± 0.12 | 92 ± 0.14 | 99 ± 0.22 | 99 ± 0.26 | 16.6 ± 0.41 | 22.9 ± 0.32 | 36.6 ± 0.19 | 52 | 00 | 00 | half-life at 2 μM [4]: 4 h; half-life at 2 μM (DPP IV): > 24 h; half-life at 2 μM [5]: > 24 h |
| CCc1cc(OC)ccc1-c1ccc(CC(NC(=O)[C@H](CC(=O)O)NC(=O)[C@H](CO)NC(=O)[C@@H](NC(=O)C(C)(Cc2ccccc2F)NC(=O)[C@@H](NC(=O)CNC(=O)[C@H](CC(C(F)(F)F)C(F)(F)F)NC(=O)C(C)(C)NC(=O)[C@H](Cc2c[nH]cn2)NC(C)=O)[C@@H](C)O)[C@@H](C)O)C(=O)NC(CCCc2ccccc2)C(N)=O)cc1 (single isomer, unassigned) [compound 210] |  |  |  |  |  | 77 |  | 100 | 0.5 | 46 ± 0.022 | 85 ± 0.46 | 90 ± 0.41 | 99 ± 0.66 | 99 ± 0.03 | 11.9 ± 0.17 | 14.2 ± 0.13 | 27.6 ± 0.16 | 100 | 75 | 100 | half-life (t1/2) when incubated with human plasma [1]: (9) h; half-life at 2 μM [4]: 0.5 h; half-life at 2 μM [5]: 0.5 h |
